Laboratory results taken from patent US6914045B2, “Glycopeptide antibiotics” (Wyeth Holdings Corporation, priority 2001, dated 2005).
Numbered stars: 1 amine (or outer) side, 2 acyl side, 3 side chain; on linkers, the order of the positions; unused ones are H or OH. Square brackets hold non-standard residues; d marks the D form. Peptide text beside a SMILES is read from it. ξ: configuration not given here. X6 = N=C1NCC(CC(N[*:1])C(=O)[*:2])N1C1OC(CO)C(O)C(O)C1O; Tyr(3-NO2) = N[CH](Cc1ccc(O)c([N+](=O)[O-])c1)C(=O)O; X7 = N=C1NCC(CC(N[*:1])C(=O)[*:2])N1; ξPhe(βξ-Me) = CC(c1ccccc1)C(N)C(=O)O

Tests used:
Test in all cases: in vitro antibacterial evaluation, MIC by broth dilution
Assay type in all cases: cell-based
Escherichia coli = conditions: 18 hours at 35° C.
Enterococcus sp. = conditions: broth dilution, 18 hours at 35° C.
Procedure, shortened: (§1)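 MIC, the lowest antibiotic concentration preventing growth, was read across 64-0.06 μg/mL with 5×10^5 CFU/mL inoculum. Method followed NCCLS M7-A2 broth dilution using Mueller-Hinton II; Gram-positive strains covered recent methicillin-, penicillin- and/or vancomycin-resistant clinical isolates.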

Streptococcus sp. = conditions: broth dilution, 18 hours at 35° C.
Procedure, shortened: as §1

Staphylococcus sp. = system: Staphylococcus sp.
Procedure, shortened: as §1

CC(c1ccccc1)C1NC(=O)CNC(=O)C(CO)NC(=O)C(C(O)C2CNC(=N)N2C2OC(CO)C(O)C(O)C2O)NC(=O)C(C(O)C2CNC(=N)N2)NC(=O)C(Cc2ccc(OC3OC(CO)C(OC4OC5COC6(CCCCC6)OC5C(O)C4O)C(O)C3O)cc2)NC1=O (stereo not shown) [Example 203]
0.12 µg/mL: MIC Streptococcus pneumoniae (GC 1894) (Streptococcus sp.) | MIC Streptococcus pneumoniae (GC 1894) (Streptococcus sp.; inoculum 5×10^5 CFU/mL, strain GC 1894)
0.25 µg/mL: MIC Streptococcus pneumoniae (GC 4565) (Streptococcus sp.) | MIC Streptococcus pneumoniae (GC 4565) (Streptococcus sp.; inoculum 5×10^5 CFU/mL, strain GC 4565)
0.5 µg/mL: MIC Streptococcus pneumoniae (ATCC 6301) (Streptococcus sp.) | MIC Streptococcus pyogenes (GC 4563) (Streptococcus sp.) | MIC Streptococcus pneumoniae (ATCC 6301) (Streptococcus sp.; inoculum 5×10^5 CFU/mL, strain ATCC 6301) | MIC Streptococcus pyogenes (GC 4563) (Streptococcus sp.; inoculum 5×10^5 CFU/mL, strain GC 4563)
4 µg/mL: MIC Enterococcus faecalis (GC 2242) (Enterococcus sp.) | MIC Enterococcus faecium (GC 4556) (Enterococcus sp.) | MIC Enterococcus faecium (GC 4557) (Enterococcus sp.) | MIC Enterococcus faecalis (GC 2242) (Enterococcus sp.; inoculum 5×10^5 CFU/mL, strain GC 2242) | MIC Enterococcus faecium (GC 4556) (Enterococcus sp.; inoculum 5×10^5 CFU/mL, strain GC 4556) | MIC Enterococcus faecium (GC 4557) (Enterococcus sp.; inoculum 5×10^5 CFU/mL, strain GC 4557) | MIC Staphylococcus aureus (GC 3053) (Staphylococcus sp.; strain GC 3053; broth dilution, 18 hours at 35° C.)
1 µg/mL: MIC Streptococcus agalactiae (GC 4564) (Streptococcus sp.) | MIC Streptococcus agalactiae (GC 4564) (Streptococcus sp.; inoculum 5×10^5 CFU/mL, strain GC 4564) | MIC Staphylococcus aureus (ATCC 29213) (Staphylococcus sp.; strain ATCC 29213; broth dilution, 18 hours at 35° C.) | MIC Staphylococcus aureus (GC 4541) (Staphylococcus sp.; strain GC 4541; broth dilution, 18 hours at 35° C.) | MIC Staphylococcus aureus (GC 4542) (Staphylococcus sp.; strain GC 4542; broth dilution, 18 hours at 35° C.) | MIC Staphylococcus aureus (GC 4545) (Staphylococcus sp.; strain GC 4545; broth dilution, 18 hours at 35° C.) | MIC Staphylococcus haemolyticus (GC 4546) (Staphylococcus sp.; strain GC 4546; broth dilution, 18 hours at 35° C.) | MIC Coagulase Negative Staphylococcus (GC 4548) (Staphylococcus sp.; strain GC 4548; broth dilution, 18 hours at 35° C.) | MIC Coagulase Negative Staphylococcus (GC 4549) (Staphylococcus sp.; strain GC 4549; broth dilution, 18 hours at 35° C.) | MIC Coagulase Negative Staphylococcus (GC 6257) (Staphylococcus sp.; strain GC 6257; broth dilution, 18 hours at 35° C.)
8 µg/mL: MIC Enterococcus avium (GC 4558) (Enterococcus sp.) | MIC Enterococcus faecalis (ATCC 29212) (Enterococcus sp.) | MIC Enterococcus faecalis (GC 2691) (Enterococcus sp.) | MIC Enterococcus faecalis (GC 3059) (Enterococcus sp.) | MIC Enterococcus faecalis (GC 4552) (Enterococcus sp.) | MIC Enterococcus faecalis (GC 4553) (Enterococcus sp.) | MIC Enterococcus faecalis (GC 4554) (Enterococcus sp.) | MIC Enterococcus faecalis (GC 6189) (Enterococcus sp.) | MIC Enterococcus faecium (GC 2243) (Enterococcus sp.) | MIC Enterococcus faecalis (ATCC 29212) (Enterococcus sp.; inoculum 5×10^5 CFU/mL, strain ATCC 29212) | MIC Enterococcus faecium (GC 2243) (Enterococcus sp.; inoculum 5×10^5 CFU/mL, strain GC 2243) | MIC Enterococcus faecalis (GC 2691) (Enterococcus sp.; inoculum 5×10^5 CFU/mL, strain GC 2691) | MIC Enterococcus faecalis (GC 3059) (Enterococcus sp.; inoculum 5×10^5 CFU/mL, strain GC 3059) | MIC Enterococcus faecalis (GC 4552) (Enterococcus sp.; inoculum 5×10^5 CFU/mL, strain GC 4552) | MIC Enterococcus faecalis (GC 4553) (Enterococcus sp.; inoculum 5×10^5 CFU/mL, strain GC 4553) | MIC Enterococcus faecalis (GC 4554) (Enterococcus sp.; inoculum 5×10^5 CFU/mL, strain GC 4554) | MIC Enterococcus avium (GC 4558) (Enterococcus sp.; inoculum 5×10^5 CFU/mL, strain GC 4558) | MIC Enterococcus faecalis (GC 6189) (Enterococcus sp.; inoculum 5×10^5 CFU/mL, strain GC 6189)
32 µg/mL: MIC Escherichia coli (GC 4559) (Escherichia coli)
64 µg/mL: MIC Escherichia coli (ATCC 25922) (Escherichia coli)
2 µg/mL: MIC Escherichia coli (GC 4560) (Escherichia coli) | MIC Staphylococcus aureus (GC 1131) (Staphylococcus sp.; broth dilution, 18 hours at 35° C., inoculum 5×10^5 CFU/mL; strain GC 1131) | MIC Staphylococcus aureus (GC 1131) (Staphylococcus sp.; strain GC 1131; broth dilution, 18 hours at 35° C.) | MIC Staphylococcus aureus (GC 3051) (Staphylococcus sp.; strain GC 3051; broth dilution, 18 hours at 35° C.) | MIC Staphylococcus aureus-SMITH (GC 4543) (Staphylococcus sp.; strain GC 4543; broth dilution, 18 hours at 35° C.) | MIC Staphylococcus aureus (GC 4544) (Staphylococcus sp.; strain GC 4544; broth dilution, 18 hours at 35° C.) | MIC Coagulase Negative Staphylococcus (GC 4547) (Staphylococcus sp.; strain GC 4547; broth dilution, 18 hours at 35° C.) | MIC Coagulase Negative Staphylococcus (GC 4551) (Staphylococcus sp.; strain GC 4551; broth dilution, 18 hours at 35° C.)

CC(c1ccccc1)C1NC(=O)CNC(=O)C(CO)NC(=O)C(CC2CNC(=N)N2C2OC(CO)C(O)C(O)C2O)NC(=O)C(CC2CNC(=N)N2)NC(=O)C(Cc2ccc(O)c([N+](=O)[O-])c2)NC1=O (stereo not drawn) [Example 10, Cyclo[3-(2-iminoimidazolidin-4-yl)alanyl-3-(3-hexopyranosyl-2-iminoimidazolidin-4-yl)-alanylserylglycyl-β-methylphenylalanyl-3-nitrotyrosyl]] (cyclo(G[ξPhe(βξ-Me)][Tyr(3-NO2)][X7][X6]S); configuration not given here)
>64 µg/mL: MIC Escherichia coli (ATCC 25922) (Escherichia coli; strain ATCC 25922, broth dilution) | MIC Escherichia coli (GC 4559) (Escherichia coli; strain GC 4559, broth dilution) | MIC Escherichia coli (GC 4560) (Escherichia coli; strain GC 4560, broth dilution) | MIC Enterococcus faecalis (ATCC 29212) (Enterococcus sp.; strain ATCC 29212) | MIC Enterococcus faecalis (GC 2242) (Enterococcus sp.; strain GC 2242) | MIC Enterococcus faecium (GC 2243) (Enterococcus sp.; strain GC 2243) | MIC Enterococcus faecalis (GC 2691) (Enterococcus sp.; strain GC 2691) | MIC Enterococcus faecalis (GC 3059) (Enterococcus sp.; strain GC 3059) | MIC Enterococcus faecalis (GC 4552) (Enterococcus sp.; strain GC 4552) | MIC Enterococcus faecalis (GC 4553) (Enterococcus sp.; strain GC 4553) | MIC Enterococcus faecalis (GC 4554) (Enterococcus sp.; strain GC 4554) | MIC Enterococcus faecium (GC 4556) (Enterococcus sp.; strain GC 4556) | MIC Enterococcus faecium (GC 4557) (Enterococcus sp.; strain GC 4557) | MIC Enterococcus avium (GC 4558) (Enterococcus sp.; strain GC 4558) | MIC Enterococcus faecalis (GC 6189) (Enterococcus sp.; strain GC 6189) | MIC Streptococcus pneumoniae (ATCC 6301) (Streptococcus sp.; strain ATCC 6301) | MIC Streptococcus pneumoniae (GC 1894) (Streptococcus sp.; strain GC 1894) | MIC Streptococcus pyogenes (GC 4563) (Streptococcus sp.; strain GC 4563) | MIC Streptococcus agalactiae (GC 4564) (Streptococcus sp.; strain GC 4564) | MIC Streptococcus pneumoniae (GC 4565) (Streptococcus sp.; strain GC 4565) | MIC Staphylococcus aureus (ATCC 29213) (Staphylococcus sp.; broth dilution, 18 hours at 35° C.; strain ATCC 29213) | MIC Staphylococcus aureus (GC 1131) (Staphylococcus sp.; broth dilution, 18 hours at 35° C.; strain GC 1131) | MIC Staphylococcus aureus (GC 3051) (Staphylococcus sp.; broth dilution, 18 hours at 35° C.; strain GC 3051) | MIC Staphylococcus aureus (GC 3053) (Staphylococcus sp.; broth dilution, 18 hours at 35° C.; strain GC 3053) | MIC Staphylococcus aureus (GC 4541) (Staphylococcus sp.; broth dilution, 18 hours at 35° C.; strain GC 4541) | MIC Staphylococcus aureus (GC 4542) (Staphylococcus sp.; broth dilution, 18 hours at 35° C.; strain GC 4542) | MIC Staphylococcus aureus-SMITH (GC 4543) (Staphylococcus sp.; broth dilution, 18 hours at 35° C.; strain GC 4543) | MIC Staphylococcus aureus (GC 4544) (Staphylococcus sp.; broth dilution, 18 hours at 35° C.; strain GC 4544) | MIC Staphylococcus aureus (GC 4545) (Staphylococcus sp.; broth dilution, 18 hours at 35° C.; strain GC 4545) | MIC Staphylococcus haemolyticus (GC 4546) (Staphylococcus sp.; broth dilution, 18 hours at 35° C.; strain GC 4546) | MIC Coagulase Negative Staphylococcus (GC 4547) (Staphylococcus sp.; broth dilution, 18 hours at 35° C.; strain GC 4547) | MIC Coagulase Negative Staphylococcus (GC 4548) (Staphylococcus sp.; broth dilution, 18 hours at 35° C.; strain GC 4548) | MIC Coagulase Negative Staphylococcus (GC 4549) (Staphylococcus sp.; broth dilution, 18 hours at 35° C.; strain GC 4549) | MIC Coagulase Negative Staphylococcus (GC 4551) (Staphylococcus sp.; broth dilution, 18 hours at 35° C.; strain GC 4551) | MIC Coagulase Negative Staphylococcus (GC 6257) (Staphylococcus sp.; broth dilution, 18 hours at 35° C.; strain GC 6257)
